Experiments:
[1] = target: CLK2 kinase (Homo sapiens, UniProt P49760); assay: CLK2 kinase activity assay (Z-lyte FRET); format: biochemical; settings: Z-lyte Ser/Thr 6 peptide, 60 μM ATP, 1 h at room temperature;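 also: FRET read-out as coumarin to fluorescein emission ratio, unphosphorylated peptide as 0% and phosphorylated peptide as 100% controls, duplicate reactions, non-linear regression fit of dose-response curves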
[2] = target: CLK3 kinase (Homo sapiens, UniProt P49761); assay: CLK3 kinase activity assay (Z-lyte FRET); format: biochemical; settings: Z-lyte Ser/Thr 18 peptide, 156 μM ATP, 1 h at room temperature;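 also: kinase activity read as coumarin/fluorescein emission ratio by FRET, unphosphorylated peptide as 0% and phosphorylated peptide as 100% control, values from non-linear regression of dose-response curves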
CLK3 kinase, sequence (P49761 whole entry): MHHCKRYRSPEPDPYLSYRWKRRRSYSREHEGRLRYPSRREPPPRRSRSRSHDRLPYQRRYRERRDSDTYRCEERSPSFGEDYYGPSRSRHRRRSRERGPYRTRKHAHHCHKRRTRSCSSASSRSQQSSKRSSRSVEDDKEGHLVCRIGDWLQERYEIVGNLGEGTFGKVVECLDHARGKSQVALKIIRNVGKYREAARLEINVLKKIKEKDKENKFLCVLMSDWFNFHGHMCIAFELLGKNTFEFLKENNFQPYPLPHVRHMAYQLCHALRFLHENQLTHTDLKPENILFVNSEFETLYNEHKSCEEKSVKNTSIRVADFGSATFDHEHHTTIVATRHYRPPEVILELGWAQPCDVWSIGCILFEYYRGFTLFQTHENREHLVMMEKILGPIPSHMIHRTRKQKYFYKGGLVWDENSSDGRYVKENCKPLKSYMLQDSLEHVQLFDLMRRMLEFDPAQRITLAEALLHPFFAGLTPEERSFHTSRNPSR
Description: This is a non-radioactive assay using fluorescence resonance energy transfer (FRET) between coumarin and fluorescein to detect kinase activity which is represented as a ratio of coumarin emission/fluorescein emission.
The mixture was allowed to incubate with the representative compounds for one hour at room temperature. All reactions were performed in duplicate. Unphosphorylated (“0% Control”) and phosphorylated (“100% control”) forms of Ser/Thr 18 served as control reactions. Additionally, an 11-point dose-response curve of Staurosporine (1 μM top) was run to serve as a positive compound control.
After incubation, Development Reagent A was diluted in Development Buffer then added to the reaction and allowed to further incubate for one hour at room temperature.
Dose-response curves were generated and inhibitory concentration (IC50) values were calculated using non-linear regression curve fit in the Dotmatics' Studies Software (Bishops Stortford, UK).

[3] = tested on: primary human mesenchymal stem cells (hMSCs); assay: Chondrogenesis screening using primary human mesenchymal stem cells; format: cell-based; settings: Homo sapiens, Mesenchymal stem cells, hMSC chondrogenesis; for Emax: maximum activity relative to TGF-β3 (10 ng/mL) positive control, read-out: Max. Activity as % TGF-β3 activity; for EC50: concentration required to induce 50% levels of chondrogenesis with TGF-β3 as positive control, read-out: Conc (nM) of 50% TGF-β3 activity
In short: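 Primary hMSCs at passage 3–6 were treated across compound concentrations, with TGF-β3 as positive control. Chondrogenic nodule area per well was normalized to 3 DMSO wells on the same plate (fold over DMSO, 2–3 replicates). EC50, maximum activity and the dose reaching it were derived.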

[4] = tested on: Wnt pathway activity (SW480 colon carcinoma cells stably expressing the Sp5-Luc reporter); assay: Wnt pathway activity screening assay (Sp5-Luc reporter gene assay); settings: Homo sapiens, SW480, Table 4; SW480 cells stably expressing Sp5-Luc reporter, 10-point dose-response from 10 μM, 36 to 48 hours
Description: The screening assay for Wnt pathway activity is described as follows.
SW480 colon carcinoma cells were transduced with a lentiviral vector expressing luciferase with a human Sp5 promoter consisting of a sequence of eight TCF/LEF binding sites. […] These stably transduced SW480 cells were expanded in cell culture and used for all further screening activities. Each compound was dissolved in DMSO as a 10 mM stock and used to prepare compound source plates. Serial dilution (1:3, 10-point dose-response curves starting from 10 μM) and compound transfer was performed using the ECHO 550 (Labcyte, Sunnyvale, Calif.) into 384-well white solid bottom assay plates (Greiner Bio-One) with appropriate DMSO backfill for a final DMSO concentration of 0.1%. […] Following incubation, 15 μl of BriteLite Plus luminescence reagent (Perkin Elmer) was added to each well of the 384-well assay plates. The plates were placed on an orbital shaker for 2 min and then luminescence was quantified using the Envision (Perkin Elmer) plate reader.

CLK2 kinase, sequence (P49760 whole entry): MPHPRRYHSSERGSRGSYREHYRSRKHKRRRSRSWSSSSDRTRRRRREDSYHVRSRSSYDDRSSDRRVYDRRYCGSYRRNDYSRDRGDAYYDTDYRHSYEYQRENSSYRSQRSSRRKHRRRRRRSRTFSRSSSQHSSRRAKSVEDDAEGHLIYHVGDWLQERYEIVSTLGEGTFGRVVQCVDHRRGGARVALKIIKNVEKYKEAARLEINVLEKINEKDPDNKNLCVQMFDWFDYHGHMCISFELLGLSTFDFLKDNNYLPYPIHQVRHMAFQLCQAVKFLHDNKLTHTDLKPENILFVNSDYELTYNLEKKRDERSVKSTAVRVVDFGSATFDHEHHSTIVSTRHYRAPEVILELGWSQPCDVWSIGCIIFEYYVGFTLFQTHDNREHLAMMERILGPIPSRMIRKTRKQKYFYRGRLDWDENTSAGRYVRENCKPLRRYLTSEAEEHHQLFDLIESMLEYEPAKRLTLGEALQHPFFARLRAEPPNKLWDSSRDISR

CC(C)Nc1cncc(-c2ccc3[nH]nc(-c4nc5c(-c6ccccc6F)cncc5[nH]4)c3c2)c1 [compound 177]
EC50 [1]: 6 nM | EC50 [2]: 209 nM | Emax [3]: 56.8% | EC50 [4]: 1 nM

c1cncc(-c2ccc3[nH]nc(-c4nc5c(-c6cccnc6)cncc5[nH]4)c3c2)c1 [compound 178]
EC50 [1]: 5 nM | EC50 [2]: 207 nM | EC50 [3]: 30 nM | Emax [3]: 159% | EC50 [4]: 35 nM

c1cncc(-c2cc3c(-c4nc5c(-c6cccnc6)cccc5[nH]4)n[nH]c3cn2)c1 [compound 179]
EC50 [1]: 11 nM | EC50 [2]: 969 nM | EC50 [3]: 100 nM | Emax [3]: 93% | EC50 [4]: 92.4 nM

c1cncc(-c2ccc3[nH]nc(-c4nc5c(-c6cccnc6)cccc5[nH]4)c3n2)c1 [compound 180]
EC50 [1]: 2 nM | EC50 [2]: 296 nM | EC50 [3]: 30 nM | Emax [3]: 57.8% | EC50 [4]: 1120 nM

c1cncc(-c2cnc3[nH]nc(-c4nc5c(-c6cccnc6)cncc5[nH]4)c3c2)c1 [compound 181]
EC50 [1]: 15 nM | EC50 [2]: 17 nM | Emax [3]: 62.9% | EC50 [4]: > 10000 nM

c1cncc(-c2cc3c(-c4nc5c(-c6cccnc6)nccc5[nH]4)n[nH]c3cn2)c1 [compound 182]
EC50 [1]: 11 nM | EC50 [2]: 9840 nM | Emax [3]: 44.5% | EC50 [4]: 28.3 nM

c1cncc(-c2ccc3[nH]nc(-c4nc5c(-c6cccnc6)nccc5[nH]4)c3n2)c1 [compound 183]
EC50 [1]: 1 nM | EC50 [2]: 105 nM | EC50 [3]: 100 nM | Emax [3]: 70% | EC50 [4]: > 10000 nM

c1cncc(-c2ccc3[nH]nc(-c4nc5c(-c6cccnc6)cncc5[nH]4)c3n2)c1 [compound 184]
EC50 [1]: 1 nM | EC50 [2]: 177 nM | EC50 [3]: 30 nM | Emax [3]: 83.8% | EC50 [4]: > 10000 nM

c1cncc(-c2ccc3[nH]nc(-c4nc5c(-c6cccnc6)ccnc5[nH]4)c3n2)c1 [compound 185]
EC50 [1]: 1 nM | EC50 [2]: 308 nM | EC50 [3]: 300 nM | Emax [3]: 94.6% | EC50 [4]: 1510 nM

CC(C)C(=O)Nc1cncc(-c2ccc3[nH]nc(-c4nc5c(-c6cccnc6)cncc5[nH]4)c3c2)c1 [compound 186]
EC50 [1]: 4 nM | EC50 [2]: 37 nM | Emax [3]: 34.4% | EC50 [4]: 5.1 nM

CC(C)C(=O)Nc1cncc(-c2ccc3[nH]nc(-c4nc5c(-c6cccnc6)ccnc5[nH]4)c3n2)c1 [compound 187]
EC50 [1]: 2 nM | EC50 [2]: 132 nM | Emax [3]: 26.1% | EC50 [4]: > 10000 nM

O=C(Nc1cncc(-c2cnc3[nH]nc(-c4nc5c(-c6cccnc6)cncc5[nH]4)c3c2)c1)C1CC1 [compound 190]
EC50 [1]: 5 nM | EC50 [2]: 39 nM | Emax [3]: 86.3% | EC50 [4]: 23.3 nM

O=C(Nc1cncc(-c2cnc3[nH]nc(-c4nc5c(-c6cccnc6)cncc5[nH]4)c3c2)c1)C1CCC1 [compound 191]
EC50 [1]: 3 nM | EC50 [2]: 49 nM | EC50 [3]: 300 nM | Emax [3]: 130% | EC50 [4]: 35.4 nM

CC(C)Nc1cncc(-c2ccc3[nH]nc(-c4nc5c(-c6cccnc6)nccc5[nH]4)c3n2)c1 [compound 193]
EC50 [1]: 2 nM | EC50 [2]: 322 nM | EC50 [3]: 10 nM | Emax [3]: 54.4% | EC50 [4]: 981 nM

CC(C)Nc1cncc(-c2ccc3[nH]nc(-c4nc5c(-c6cccnc6)cncc5[nH]4)c3n2)c1 [compound 194]
EC50 [1]: 2 nM | EC50 [2]: 213 nM | EC50 [3]: 30 nM | Emax [3]: 64.6% | EC50 [4]: 1270 nM

CC(C)Nc1cncc(-c2ccc3[nH]nc(-c4nc5c(-c6cccnc6)ccnc5[nH]4)c3n2)c1 [compound 195]
EC50 [1]: 1 nM | EC50 [2]: 280 nM | EC50 [3]: 10 nM | Emax [3]: 114% | EC50 [4]: 1750 nM

CCCC(=O)Nc1cncc(-c2ccc3[nH]nc(-c4nc5c(-c6ccncc6)cncc5[nH]4)c3n2)c1 [compound 196]
EC50 [1]: 5 nM | EC50 [2]: 995 nM | Emax [3]: 31% | EC50 [4]: 999 nM

O=C(Nc1cncc(-c2ccc3[nH]nc(-c4nc5c(-c6ccncc6)ccnc5[nH]4)c3n2)c1)C1CCCCC1 [compound 198]
EC50 [1]: 11 nM | EC50 [2]: 984 nM | EC50 [3]: 10 nM | Emax [3]: 68.6% | EC50 [4]: 999 nM

c1cncc(-c2cc3c(-c4nc5ccccc5[nH]4)n[nH]c3cn2)c1 [compound 200]
EC50 [1]: 22 nM | EC50 [2]: 209 nM | EC50 [3]: 30 nM | Emax [3]: 80.5% | EC50 [4]: 20.1 nM

c1cncc(-c2ccc3[nH]nc(-c4nc5cnccc5[nH]4)c3n2)c1 [compound 201]
EC50 [1]: 15 nM | EC50 [2]: 2270 nM | EC50 [3]: 30 nM | Emax [3]: 54.8% | EC50 [4]: > 10000 nM

CC(C)(C)CC(=O)Nc1cncc(-c2ccc3[nH]nc(-c4nc5ccncc5[nH]4)c3c2)c1 [compound 202]
EC50 [1]: 2 nM | EC50 [2]: 65 nM | EC50 [3]: 100 nM | Emax [3]: 152% | EC50 [4]: 21 nM

CC(C)(C)CC(=O)Nc1cncc(-c2ccc3[nH]nc(-c4nc5ccncc5[nH]4)c3n2)c1 [compound 203]
EC50 [1]: 11 nM | EC50 [2]: 558 nM | EC50 [3]: 10 nM | Emax [3]: 54.1% | EC50 [4]: > 10000 nM

O=C(Nc1cncc(-c2ccc3[nH]nc(-c4nc5ccncc5[nH]4)c3c2)c1)C1CC1 [compound 204]
EC50 [1]: 27 nM | EC50 [2]: 206 nM | Emax [3]: 93.8% | EC50 [4]: 8 nM

CCC(=O)Nc1cncc(-c2ccc3[nH]nc(-c4nc5c(N6CCCCC6)cncc5[nH]4)c3n2)c1 [compound 206]
EC50 [1]: 12 nM | EC50 [2]: 213 nM | EC50 [3]: 900 nM | Emax [3]: 69.8% | EC50 [4]: > 10000 nM

CCC(=O)Nc1cncc(-c2ccc3[nH]nc(-c4nc5c(N6CCCCC6)ccnc5[nH]4)c3n2)c1 [compound 207]
EC50 [1]: 3 nM | EC50 [2]: 1290 nM | Emax [3]: 38.3% | EC50 [4]: > 10000 nM

CC(C)(C)C(=O)Nc1cncc(-c2ccc3[nH]nc(-c4nc5c(N6CCCCC6)cncc5[nH]4)c3c2)c1 [compound 209]
EC50 [1]: 11 nM | EC50 [2]: 94 nM | EC50 [3]: 100 nM | Emax [3]: 114% | EC50 [4]: 41 nM

O=C(Nc1cncc(-c2ccc3[nH]nc(-c4nc5c(N6CCCCC6)cncc5[nH]4)c3c2)c1)C1CCC1 [compound 210]
EC50 [1]: 7 nM | EC50 [2]: 54 nM | EC50 [3]: 30 nM | Emax [3]: 106% | EC50 [4]: 39 nM

FC1(F)CCN(Cc2cncc(-c3ccc4[nH]nc(-c5nc6c(N7CCCCC7)cncc6[nH]5)c4c3)c2)C1 [compound 211]
EC50 [1]: 8 nM | EC50 [2]: 107 nM | Emax [3]: 80.1% | EC50 [4]: 20 nM

FC1(F)CCN(Cc2cncc(-c3cc4c(-c5nc6c(N7CCCCC7)cncc6[nH]5)n[nH]c4cn3)c2)C1 [compound 212]
EC50 [1]: 5 nM | EC50 [2]: 89 nM | EC50 [3]: 10 nM | Emax [3]: 100% | EC50 [4]: 116 nM

CN1CCN(c2cncc3[nH]c(-c4n[nH]c5ccc(-c6cccnc6)cc45)nc23)CC1 [compound 213]
EC50 [1]: 1 nM | EC50 [2]: 51 nM | Emax [3]: 80.6% | EC50 [4]: 53 nM

CN1CCN(c2nccc3[nH]c(-c4n[nH]c5ccc(-c6cncc(N)c6)nc45)nc23)CC1 [compound 214]
EC50 [1]: 2 nM | EC50 [2]: 344 nM | EC50 [3]: 100 nM | Emax [3]: 135% | EC50 [4]: > 10000 nM

CN1CCN(c2cncc3[nH]c(-c4n[nH]c5ccc(-c6cncc(N)c6)nc45)nc23)CC1 [compound 215]
EC50 [1]: 5 nM | EC50 [2]: 500 nM | EC50 [3]: 30 nM | Emax [3]: 64.6% | EC50 [4]: > 10000 nM

CN1CCN(c2ccnc3[nH]c(-c4n[nH]c5ccc(-c6cncc(N)c6)nc45)nc23)CC1 [compound 216]
EC50 [1]: 2 nM | EC50 [2]: 843 nM | Emax [3]: 46.9% | EC50 [4]: > 10000 nM

CN1CCN(c2cncc3[nH]c(-c4n[nH]c5ccc(-c6cncc(N7CCOCC7)c6)cc45)nc23)CC1 [compound 218]
EC50 [1]: 1 nM | EC50 [2]: 32 nM | Emax [3]: 63.8% | EC50 [4]: 83 nM

Cc1cn(-c2nccc3[nH]c(-c4n[nH]c5ccc(-c6cncc(NC(=O)C(C)(C)C)c6)nc45)nc23)cn1 [compound 221]
EC50 [1]: 3 nM | EC50 [2]: 188 nM | EC50 [3]: 30 nM | Emax [3]: 69.7% | EC50 [4]: > 10000 nM

Cc1cn(-c2ccnc3[nH]c(-c4n[nH]c5ccc(-c6cncc(NC(=O)C(C)(C)C)c6)nc45)nc23)cn1 [compound 223]
EC50 [1]: 3 nM | EC50 [2]: 123 nM | EC50 [3]: 10 nM | Emax [3]: 70.2% | EC50 [4]: > 10000 nM

Cc1cn(-c2nccc3[nH]c(-c4n[nH]c5ccc(-c6cncc(NC(=O)CC(C)C)c6)cc45)nc23)cn1 [compound 224]
EC50 [1]: 12 nM | EC50 [2]: 56 nM | EC50 [3]: 30 nM | Emax [3]: 73.7% | EC50 [4]: 10.4 nM

Cc1cn(-c2nccc3[nH]c(-c4n[nH]c5ccc(-c6cncc(NC(=O)CC(C)C)c6)nc45)nc23)cn1 [compound 226]
EC50 [1]: 4 nM | EC50 [2]: 116 nM | EC50 [3]: 30 nM | Emax [3]: 69.3% | EC50 [4]: 2900 nM

Cc1cn(-c2cncc3[nH]c(-c4n[nH]c5ccc(-c6cncc(NC(=O)C7CCC7)c6)nc45)nc23)cn1 [compound 227]
EC50 [1]: 10 nM | EC50 [2]: 1300 nM | Emax [3]: 47.2% | EC50 [4]: > 10000 nM

Cc1cn(-c2ccnc3[nH]c(-c4n[nH]c5ccc(-c6cncc(NC(=O)C7CCC7)c6)nc45)nc23)cn1 [compound 228]
EC50 [1]: 4 nM | EC50 [2]: 106 nM | EC50 [3]: 300 nM | Emax [3]: 69.1% | EC50 [4]: > 10000 nM

Source: patent US20230000842A1, “METHODS OF TREATING CARTILAGE DISORDERS THROUGH INHIBITION OF CLK AND DYRK” (SAMUMED, LLC, priority 2019, published 2023)
